± gives the expanded uncertainty stated by the source.
Test: molar heat capacity at constant pressure
Details: 101.33 kPa, Crystal

SMILES: O=[N+]([O-])c1cnc(O)nc1O [2,4-pyrimidinedione, 5-nitro-]
- molar heat capacity at constant pressure (298.15 K): 167.2 ± 5.2 J/K/mol
- molar heat capacity at constant pressure (303.15 K): 167.9 ± 5.2 J/K/mol
- molar heat capacity at constant pressure (308.15 K): 169.9 ± 5.3 J/K/mol
- molar heat capacity at constant pressure (313.15 K): 169.9 ± 5.3 J/K/mol
- molar heat capacity at constant pressure (318.15 K): 171.1 ± 5.3 J/K/mol
- molar heat capacity at constant pressure (323.15 K): 171.8 ± 5.3 J/K/mol
- molar heat capacity at constant pressure (328.15 K): 173 ± 5.4 J/K/mol
- molar heat capacity at constant pressure (333.15 K): 173.1 ± 5.4 J/K/mol
- molar heat capacity at constant pressure (338.15 K): 174.5 ± 5.4 J/K/mol
- molar heat capacity at constant pressure (343.15 K): 174.5 ± 5.4 J/K/mol

SMILES: Cc1cc(=O)n(C)c(=O)[nH]1 [3,6-dimethyluracil]
- molar heat capacity at constant pressure (298.15 K): 187.4 ± 5.9 J/K/mol
- molar heat capacity at constant pressure (303.15 K): 193.1 ± 6 J/K/mol
- molar heat capacity at constant pressure (308.15 K): 191.4 ± 6 J/K/mol
- molar heat capacity at constant pressure (313.15 K): 193.5 ± 6.1 J/K/mol
- molar heat capacity at constant pressure (318.15 K): 198.4 ± 6.2 J/K/mol
- molar heat capacity at constant pressure (323.15 K): 200.3 ± 6.2 J/K/mol
- molar heat capacity at constant pressure (328.15 K): 202.4 ± 6.3 J/K/mol
- molar heat capacity at constant pressure (333.15 K): 203.8 ± 6.3 J/K/mol
- molar heat capacity at constant pressure (338.15 K): 206 ± 6.4 J/K/mol
- molar heat capacity at constant pressure (343.15 K): 209 ± 6.5 J/K/mol

SMILES: O=c1[nH]cc(C(F)(F)F)c(=O)[nH]1 [5-(trifluoromethyl)uracil]
- molar heat capacity at constant pressure (298.15 K): 182.2 ± 5.6 J/K/mol
- molar heat capacity at constant pressure (303.15 K): 183.9 ± 5.7 J/K/mol
- molar heat capacity at constant pressure (308.15 K): 188.1 ± 5.8 J/K/mol
- molar heat capacity at constant pressure (313.15 K): 190.3 ± 5.9 J/K/mol
- molar heat capacity at constant pressure (318.15 K): 192.2 ± 6 J/K/mol
- molar heat capacity at constant pressure (323.15 K): 195.9 ± 6.1 J/K/mol
- molar heat capacity at constant pressure (328.15 K): 198.2 ± 6.1 J/K/mol
- molar heat capacity at constant pressure (333.15 K): 199.4 ± 6.2 J/K/mol
- molar heat capacity at constant pressure (338.15 K): 204.4 ± 6.3 J/K/mol
- molar heat capacity at constant pressure (343.15 K): 206.6 ± 6.4 J/K/mol

SMILES: O=c1[nH]cc(Br)c(=O)[nH]1 [5-bromouracil]
- molar heat capacity at constant pressure (298.15 K): 144.7 ± 4.5 J/K/mol
- molar heat capacity at constant pressure (303.15 K): 147.9 ± 4.6 J/K/mol
- molar heat capacity at constant pressure (308.15 K): 148.5 ± 4.6 J/K/mol
- molar heat capacity at constant pressure (313.15 K): 151 ± 4.7 J/K/mol
- molar heat capacity at constant pressure (318.15 K): 153.9 ± 4.8 J/K/mol
- molar heat capacity at constant pressure (323.15 K): 157.1 ± 4.9 J/K/mol
- molar heat capacity at constant pressure (328.15 K): 157.9 ± 4.9 J/K/mol
- molar heat capacity at constant pressure (333.15 K): 162 ± 5 J/K/mol
- molar heat capacity at constant pressure (338.15 K): 164.3 ± 5.1 J/K/mol
- molar heat capacity at constant pressure (343.15 K): 164.8 ± 5.1 J/K/mol

SMILES: Oc1ncc(Cl)c(O)n1 [5-chloro-2,4-pyrimidinedione]
- molar heat capacity at constant pressure (298.15 K): 136.7 ± 4.2 J/K/mol
- molar heat capacity at constant pressure (303.15 K): 137.9 ± 4.3 J/K/mol
- molar heat capacity at constant pressure (308.15 K): 142.1 ± 4.4 J/K/mol
- molar heat capacity at constant pressure (313.15 K): 142.9 ± 4.4 J/K/mol
- molar heat capacity at constant pressure (318.15 K): 146.1 ± 4.5 J/K/mol
- molar heat capacity at constant pressure (323.15 K): 147.2 ± 4.6 J/K/mol
- molar heat capacity at constant pressure (328.15 K): 151.2 ± 4.7 J/K/mol
- molar heat capacity at constant pressure (333.15 K): 152.9 ± 4.7 J/K/mol
- molar heat capacity at constant pressure (338.15 K): 154.9 ± 4.8 J/K/mol
- molar heat capacity at constant pressure (343.15 K): 157 ± 4.9 J/K/mol

SMILES: O=c1[nH]cc(F)c(=O)[nH]1 [5-fluoro-2,4(1H,3H)-pyrimidinedione]
- molar heat capacity at constant pressure (298.15 K): 138.3 ± 4.7 J/K/mol
- molar heat capacity at constant pressure (303.15 K): 139.1 ± 4.7 J/K/mol
- molar heat capacity at constant pressure (308.15 K): 140 ± 4.7 J/K/mol
- molar heat capacity at constant pressure (313.15 K): 140.9 ± 4.8 J/K/mol
- molar heat capacity at constant pressure (318.15 K): 142 ± 4.8 J/K/mol
- molar heat capacity at constant pressure (323.15 K): 143.6 ± 4.8 J/K/mol
- molar heat capacity at constant pressure (328.15 K): 145.5 ± 4.9 J/K/mol
- molar heat capacity at constant pressure (333.15 K): 147.9 ± 4.9 J/K/mol
- molar heat capacity at constant pressure (338.15 K): 150.6 ± 5 J/K/mol
- molar heat capacity at constant pressure (343.15 K): 153.8 ± 5.1 J/K/mol

SMILES: O=c1[nH]cc(I)c(=O)[nH]1 [5-iodouracil]
- molar heat capacity at constant pressure (298.15 K): 150.9 ± 4.7 J/K/mol
- molar heat capacity at constant pressure (303.15 K): 153.9 ± 4.8 J/K/mol
- molar heat capacity at constant pressure (308.15 K): 156.8 ± 4.9 J/K/mol
- molar heat capacity at constant pressure (313.15 K): 159.8 ± 5 J/K/mol
- molar heat capacity at constant pressure (318.15 K): 162.8 ± 5 J/K/mol
- molar heat capacity at constant pressure (323.15 K): 165.8 ± 5.1 J/K/mol
- molar heat capacity at constant pressure (328.15 K): 168.6 ± 5.2 J/K/mol
- molar heat capacity at constant pressure (333.15 K): 170.3 ± 5.3 J/K/mol
- molar heat capacity at constant pressure (338.15 K): 172.7 ± 5.4 J/K/mol
- molar heat capacity at constant pressure (343.15 K): 177.5 ± 5.5 J/K/mol

SMILES: O=c1cc(Cl)[nH]c(=O)[nH]1 [6-chlorouracil]
- molar heat capacity at constant pressure (298.15 K): 139.4 ± 4.3 J/K/mol
- molar heat capacity at constant pressure (303.15 K): 141 ± 4.4 J/K/mol
- molar heat capacity at constant pressure (308.15 K): 141.2 ± 4.4 J/K/mol
- molar heat capacity at constant pressure (313.15 K): 140.8 ± 4.4 J/K/mol
- molar heat capacity at constant pressure (318.15 K): 141.3 ± 4.4 J/K/mol
- molar heat capacity at constant pressure (323.15 K): 144.7 ± 4.5 J/K/mol
- molar heat capacity at constant pressure (328.15 K): 144.9 ± 4.5 J/K/mol
- molar heat capacity at constant pressure (333.15 K): 145.1 ± 4.5 J/K/mol
- molar heat capacity at constant pressure (338.15 K): 146 ± 4.5 J/K/mol
- molar heat capacity at constant pressure (343.15 K): 147.9 ± 4.6 J/K/mol

SMILES: Cc1c[nH]c(=O)[nH]c1=O [thymine]
- molar heat capacity at constant pressure (298.15 K): 163 ± 5.3 J/K/mol
- molar heat capacity at constant pressure (303.15 K): 168.2 ± 5.4 J/K/mol
- molar heat capacity at constant pressure (308.15 K): 173.7 ± 5.6 J/K/mol
- molar heat capacity at constant pressure (313.15 K): 178.7 ± 5.7 J/K/mol
- molar heat capacity at constant pressure (318.15 K): 184.3 ± 5.8 J/K/mol
- molar heat capacity at constant pressure (323.15 K): 189.9 ± 6 J/K/mol
- molar heat capacity at constant pressure (328.15 K): 195.2 ± 6.1 J/K/mol
- molar heat capacity at constant pressure (333.15 K): 200 ± 6.2 J/K/mol
- molar heat capacity at constant pressure (338.15 K): 203.5 ± 6.3 J/K/mol
- molar heat capacity at constant pressure (343.15 K): 205.9 ± 6.4 J/K/mol

SMILES: Cn1c(=O)cc[nH]c1=O [uracil, 3-methyl-]
- molar heat capacity at constant pressure (298.15 K): 157 ± 5 J/K/mol
- molar heat capacity at constant pressure (303.15 K): 168.8 ± 5.3 J/K/mol
- molar heat capacity at constant pressure (308.15 K): 181.2 ± 5.7 J/K/mol
- molar heat capacity at constant pressure (313.15 K): 193 ± 6 J/K/mol
- molar heat capacity at constant pressure (318.15 K): 206.1 ± 6.4 J/K/mol
- molar heat capacity at constant pressure (323.15 K): 214.3 ± 6.6 J/K/mol
- molar heat capacity at constant pressure (328.15 K): 226.1 ± 7 J/K/mol
- molar heat capacity at constant pressure (333.15 K): 239.2 ± 7.4 J/K/mol
- molar heat capacity at constant pressure (338.15 K): 249 ± 7.7 J/K/mol
- molar heat capacity at constant pressure (343.15 K): 260.2 ± 8.1 J/K/mol

— the NIST ThermoML archive (doi:10.1021/je060257y)
